Here are results for 18 compounds from a flash point compilation (Sun et al. 2020).

Molecules are shown by their SMILES.

`C[CH2][Ge]([Cl])([Cl])[Cl]` [ETHYLTRICHLOROGERMANE] registered a flash point of 51.00 °C. The same measure, in the same setting: with `[CH3][Ge]([CH3])([CH3])[Ge]([CH3])([CH3])[CH3]` [HEXAMETHYLDIGERMANE] the figure was 14.00 °C. For the compound `C=C(C)C(=O)O[CH2][Ge]([CH3])([CH3])[CH3]` [METHACRYLOXYMETHYLTRIMETHYLGERMANE], the flash point was 63.00 °C. In turn, `[CH3][Ge]([Cl])([Cl])[Cl]` [METHYLTRICHLOROGERMANE] registered a flash point of 10.00 °C. Same read-out and setting: with `CCCC[O][Ge]([O]CCCC)([O]CCCC)[O]CCCC` [TETRA-n-BUTOXYGERMANE] the figure was 112.00 °C; with `C[CH2][Ge]([CH2]C)([CH2]C)[CH2]C` [TETRAETHYLGERMANE], 42.00 °C; with `C[N](C)[Ge]([N](C)C)([N](C)C)[N](C)C` [TETRAKIS(DIMETHYLAMINO)GERMANE], 34.00 °C. The same measure, in the same setting: with `C[O][Ge]([O]C)([O]C)[O]C` [TETRAMETHOXYGERMANE] the figure was 34.00 °C. On to `[CH3][Ge]([CH3])([CH3])[Br]` [TRIMETHYLBROMOGERMANE], for which the flash point was determined as 37.00 °C.

In the case of `C=[CH][Ge]([CH2]C)([CH2]C)[CH2]C` [VINYLTRIETHYLGERMANE], the flash point is 32.00 °C. The same measure, in the same setting: with `C[C](C)(C)[Ge]([CH3])([CH3])[Cl]` [t-BUTYLDIMETHYLCHLOROGERMANE] the figure was 34.00 °C.

This is another data set of the same source.
`C[Si](Cl)(Cl)CCCCl` [3-Chloropropylmethyldichlorosilane] came in with a flash point of 86 °C. In turn, `CN(C)[Si](C)(C)C` [(N,N-Dimethylamino)trimethylsilane] returned a flash point of -19 °C. On the same count and under the same terms, with `CC[Si](Cl)(Cl)Cl` [Ethyltrichlorosilane] the figure was 22 °C; with `C[SiH](Cl)Cl` [Methyldichlorosilane], -32 °C.

In turn, `Cl[SiH](Cl)c1ccccc1` [Phenyldichlorosilane] registered a flash point of 60 °C. The same measure, in the same setting: with `C[SiH](C)c1ccccc1` [Phenyldimethylsilane] the figure was 38 °C; with `C=C[Si]1(C)[Si](C)(C=C)[Si](C)(C=C)[Si]1(C)C=C` (stereo not given) [Tetramethyltetravinylcyclotetrasilane], 112 °C.

The source holds these as a separate data set.
`CN(C)[Si](C)(C)C` [(N,N-Dimethylamino)trimethylsilane] showed a flash point of -18.6 °C. Still for that read-out and setting: with `CC[Si](Cl)(Cl)Cl` [Ethyltrichlorosilane] the figure was -10.00 °C.
